{"source": "patent US11964984B2", "about": "“TXNIP-TRX complex inhibitors and methods of using the same” (CITY OF HOPE, priority 2020, dated 2024)", "key": {"[1]": {"tested_on": "TXNIP mRNA", "experiment": "TXNIP mRNA expression in THP1 cells under 25 mM glucose (RT-PCR)", "type": "cell-based, human", "method": "FIGS. 2A-2B. FIG. 2A: C30 and C38 inhibited TXNIP mRNA expression in THP1 cells. THP1 cells were cultured under 25 mM glucose with the indicated concentrations of compounds for 72 hours. Cells were then collected for total RNA preparation. RT-PCR was performed, and data shown are the mean±SEM from triplicates. Statistical analysis was performed using one-way ANOVA, *p<0.0001. FIG. 2B: C30 and C38 inhibited TNF-α mRNA expression in THP1 cells. THP1 cells were cultured under 25 mM glucose with various concentrations of compounds as indicated for 72 hours and collected for total RNA preparation. RT-PCR was performed, and data shown are the mean±SEM from triplicates. Statistical analysis was performed using one-way ANOVA: *<0.02; **<0.0001.\nFIG. 6. C38 analogues effects on TXNIP mRNA expression in THP1 cells. THP1 cells were cultured under 25 mM glucose with 2.5 uM of compounds for 72 h. Total RNA was collected. RT-PCR was performed in triplicate and data shown are the mean±SEM. Statistical analysis was performed using one-way ANOVA: *p<0.0001.\nFIG. 7. C38 and analogue E2 effects on TXNIP mRNA levels in THP cells. THP1 cells were cultured under 25 mM glucose with several concentration of C38 and E2 as indicated for 72 hours. Total RNA was prepared. RT-PCR was performed in triplicate and data shown are the mean±SEM. Statistical analysis was performed for each column vs. without compound control using one-way ANOVA: *p<0.0001.\nC30 and C38 inhibited TXNIP mRNA expression in THP1 cells.\nDiscovery of lead compound analogues. A search of chemical libraries was performed in the interest of identifying possible lead compound analogues. Analogues to C38 were identified. To determine the properties of the analogues, we treated THP1 cells with the E batch compounds for three days, prepared RNA and measured TXNIP mRNA levels.\nRNA extraction and quantitative RT-PCR. RNA was extracted using the Direct-zol™ RNA MiniPrep Plus (Zymo Research). Reverse transcription of RNA samples into cDNA was performed using the GeneAmp RNA PCR Kit (Applied Biosystems), dNTP (from Roche Applied Science), Rnase inhibitor, MULV Reverse Transcriptase and Random hexamers reagent (all from Invitrogen). Diluted cDNA was quantified using real-time PCR performed with Power SYBR Green qPCR MasterMix (Applied Biosystem) and 7500 real-time PCR system (Applied Biosystems). The HPRT1 gene was used as an internal control."}, "[2]": {"tested_on": "TXNIP", "conditions": "literature (Nature Med. 2018); cited from earlier work"}}}
{"smiles": "COc1ccc(CCNc2ncnc3c2oc2ccccc23)cc1OC", "note": "[Compound E2]", "values": [{"measurement": "TXNIP mRNA expression (C38 analogues screen)", "setting": "[1]; 2.5 uM compound, 72 h", "value": "strongly inhibited TXNIP mRNA expression"}, {"measurement": "TXNIP mRNA levels, E2 compared with C38", "setting": "[1]; several concentrations, 72 hours", "value": "moderately better than C38"}]}
{"smiles": "COc1ccc(CCN(C)CCCC(C#N)(c2ccc(OC)c(OC)c2)C(C)C)cc1OC", "note": "(stereo not drawn) [Verapamil]", "values": [{"measurement": "expression of TXNIP", "setting": "[2]", "value": "inhibit the expression of TXNIP"}]}
